# Paper PMC6054100, “Exploring the chemical space of the lysine-binding pocket of the first kringle domain of hepatocyte growth factor/scatter factor (HGF/SF) yields a new class of inhibitors of HGF/SF-MET binding” (Chemical Science, 2015)
# Target: NK1 (Homo sapiens, UniProt P14210)
# Test: SPR fragment library screening against NK1
# Format: binding
# Set-up: made in house; host or cells: Pichia pastoris
# Conditions: for Ranking order: based on fragment screening, rank among the 71 NK1 hits (ESI Tables S3-S7); for SPR response: normalised relative value against NK1, fragments 500 μM (ESI Tables S3-S7)
# Procedure: Supplementary Materials and Methods
# Fragment library screening and data analysis
# Met567 (soluble truncated f ragment of the MET ectodomain, residues 25- 567), NK1 and t he SPH domain were immobilized on CM5 chips by amine coupling. NK1 was diluted into 10 m M phosphate pH 7.0 and the SPH domain into 10 mM acetate pH 5.5 to a final concentration of 2.5 μM and 1 μM, respectively, for coupling. The immobilization wizard within the Biacore T100 software was set to “aim for immobiliz ed level” of 8000 RU to achieve complete saturation of the chip surface.
# W ith minor deviations, the procedure and conditions outlined below were used f or a ll screening s of an in-house fragment library of 1338 members against individual target proteins. The running buffer was PBS pH 7.4, 0.05% Tween 20, 0.25% DMSO (1% DMSO for Met567). Fragments were stored as 100 mM stock solutions in DMSO. Prior to screening, fragment samples were diluted to 500 μM (1 mM f or Met567) in running buffer.
# Screening was performed in 96- we ll plates at a flow rate of 30 μl min-1 with 1 min sample injection f ollowed by dissociation f or 1 min and surf ace regeneration using 1 M NaCl f or 30 […]
# post-regeneration baseline exceeded the pre- sample baseline by more than 10 RU, a second regeneration cycle with 50% ethylene glycol was used. In order to be able to correct for small variations in DMSO concentration between samples, eight solvent samples ranging from 0.012 to 1.5% DMSO were injected every 40th cycle. To monitor the binding capacity of the NK1, SPH and Met567 surfaces throughout the screening, injections of 500 μM HEPES (NK1), 0.25 μM Met567 (SPH) and 0.2 μM NK1 and 1% DMSO (Met567) were carried out every 40th cycle. The flow cell temperature was 25°C. NK1 and the SPH domain were immobilized on the same chip (channels 2 and 3 respectively) and were theref ore screened in parallel. Met567 was screened separately and results are published in an accompanying paper (W in t er et al. 2015, in revision).
# For data analysis, fir st, all responses were reference and solvent corrected. 1 Next, equilibrium binding for every fragment was determined and hits established by applying several filters: sensorgram shape, upper and lower threshold. Typical sensorgrams from fragment screening show “square curves” in SPR due to the fast on and off rates and fragments not showing this response were discarded from further analysis. Binding levels are represented as response units (RU) but the SPR signal is a convolution of multiple parameters including target coupling density, target -binding activity, target molecular weight and molecular weight of each injected fragment. To be able to identif y hits accurately and to be able to compare responses between different plates and targets, data were normalised against these factors. First the theoretical maximum response for each fragment was calculated using equation 1:
# RRmmm = CCCCCCCC ddCdCdd× MMffmCmdCd (Equation 1)
# This RUmax value diff ers for each protein target because it depends on the molecular weight of the protein and the amount of protein immobilized on the chip (coupling density). The RUmax was then used to calculate the normalised relative SPR response:
# NNNNNNNNNN NNNNr NrN SSR NNNrNrNN = RRcppppcppc× 100% (Equation 2) […]
# fragment should cause upon binding. 100% response would be 1:1 binding wit h levels above 100% implying over-stoichiometric binding. […]
# Fragment library screening to identify small molecule binders
# Sequence of NK1 (P14210 32-210 isoform P14210-6 limits assumed): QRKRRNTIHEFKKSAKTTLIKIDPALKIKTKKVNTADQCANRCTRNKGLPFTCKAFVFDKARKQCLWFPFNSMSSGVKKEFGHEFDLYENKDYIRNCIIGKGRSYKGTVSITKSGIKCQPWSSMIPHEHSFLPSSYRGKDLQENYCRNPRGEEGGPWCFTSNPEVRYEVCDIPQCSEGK
Compound,Ranking order,SPR response
O=C(O)c1ccc2[nH]ncc2c1 [AT0541],38,56%
CC1(C(=O)O)CC2C=CC1C2 (stereo not shown) [MB385],42,54%
Cc1cc(N)no1 [MB397],20,81%
OC12CC3CC(CC(C3)C1)C2 [MB405],40,56%
Nc1cccc(OC(F)(F)F)c1 [MB406],54,42%
Nc1cccc(S(N)(=O)=O)c1 [MB409],59,36%
NC(=O)c1ccc(-c2csnn2)cc1 [MB414],50,50%
CCOC(=O)c1cnc2n(c1=O)CCS2 [MB415],58,37%
Cc1nc(C(C)(C)C)cs1 [MB887],32,62%
COc1cccc(OC)c1SC [MB894],51,49%
O=C(O)c1ccccc1C(=O)c1ccc(F)cc1 [MB900],69,28%
COC(=O)c1sc(C(C)(C)C)cc1N [MB914],63,34%
COC(=O)c1scc(C)c1Cl [MB916],64,34%
Cc1csc(C(=O)O)c1 [MB921],52,49%
Cn1ccc(C(F)(F)F)n1 [MB926],66,30%
N#CCCNCC1CCCO1 (stereo not shown) [MB975],65,33%
Cc1ncsc1C(=O)O [MB996],56,38%
Nc1ccc(OC(F)(F)F)cc1 [MB1100],70,27%
NC(=O)Cc1ccc(O)cc1 [MB1174],53,43%
N#CCOc1cccc(C(F)(F)F)c1 [MB1251],27,66%
CC(=O)c1ccc(OC(F)(F)F)cc1 [MB1291],26,68%
CCc1cccc(C(C)=O)c1 [MB1300],14,93%
COC(=O)CSc1ccccc1 [MB1308],34,60%
NC(=O)Cc1ccc(F)cc1Cl [MB1321],28,65%

# Continued, values first:
Ranking order,SPR response,Compound
60,35%,CC1CCN(C(=O)C2CCCCN2)CC1 (stereo not shown) [MB1015]
61,35%,CCC1CCC(N)CC1 (stereo not shown) [MB1016]
71,26%,CC(C)(N)CN1CCCC1 [MB1017]
29,63%,CN(C)C(=O)c1ccc2nccnc2c1 [MB1058]
57,38%,CN(C)C(=O)C1CCOCC1 [MB1065]
62,34%,O=C(C1CCOCC1)N1CCCCC1 [MB1066]
68,28%,O=C(C1CCCCO1)N1CCCC1 (stereo not shown) [MB1067]
67,30%,O=C(O)C1CCNCC1 [MB1129]
55,39%,Cc1noc(N)c1C [MB1136]
49,50%,CSc1ccc(C(=O)O)s1 [MB1217]
30,63%,COC(=O)c1ccccc1OC(F)(F)F [MB1292]
25,70%,COC(=O)c1ccc(F)cc1Cl [MB1301]
31,62%,COC(=O)c1ccc(C)c(Cl)c1 [MB1307]
35,60%,CC(=O)NCc1cccnc1 [MB1317]
